Experimental data: US20210186927A1, “COMBINATION PRODUCT FOR THE INDUCTION AND/OR MAINTENANCE OF GENERAL ANESTHESIA” (priority 2018, published 2021)
Read-outs that look alike come from different tables or passages of the source.

Columns and labels:
DOR = DOR (Homo sapiens, UniProt P41143); conditions: cited from earlier work
mice [1] = conditions: cited from earlier work
KOR = KOR (Homo sapiens, UniProt P41145); conditions: cited from earlier work
male Sprague Dawley rats [2] = assay type: in vivo, rat
Description: Decreases in spontaneous locomotor and/or exploratory activity: Immediately after administration of each bolus injection, the animal was assessed for any changes in spontaneous locomotor and/or exploratory activity. […] If the spontaneous righting reflex (see here below) had not been lost after dosing but sedation was observed, the animal was monitored at regular intervals to assess the duration of the induced sedation.

rats [3] = conditions: cited from earlier work
rats [4] = conditions: 0.25-2 mg/kg i.p.; cited from earlier work
mice [5] = conditions: 0.5-2 mg/kg i.p.; cited from earlier work
male Sprague Dawley rats [6] = assay type: in vivo, rat; remark: listed apart in the source
Description: The spontaneous righting reflex: Before and at a series of set time points following each bolus injection, the animal was placed on its back and righting time measured. Righting normally occurs under 15 seconds. Whenever the animal was unable to right itself, it was considered that the spontaneous righting reflex had been lost and unconsciousness induced.
Duration of unconsciousness: The time lapse since the loss of the spontaneous righting reflex until its recovery was recorded and considered a measurement of the overall duration of unconsciousness.

monkeys = conditions: drug-discrimination study; cited from earlier work
healthy humans = conditions: cited from earlier work
MOR = MOR (Homo sapiens, UniProt P35372); conditions: cited from earlier work
rats [7] = conditions: 10 mg/kg i.p.; cited from earlier work
Rhesus monkeys = conditions: cited from earlier work
rats [8] = conditions: 1.0-3.0 mg/kg i.p.; cited from earlier work

Sequence of KOR (P41145 whole entry): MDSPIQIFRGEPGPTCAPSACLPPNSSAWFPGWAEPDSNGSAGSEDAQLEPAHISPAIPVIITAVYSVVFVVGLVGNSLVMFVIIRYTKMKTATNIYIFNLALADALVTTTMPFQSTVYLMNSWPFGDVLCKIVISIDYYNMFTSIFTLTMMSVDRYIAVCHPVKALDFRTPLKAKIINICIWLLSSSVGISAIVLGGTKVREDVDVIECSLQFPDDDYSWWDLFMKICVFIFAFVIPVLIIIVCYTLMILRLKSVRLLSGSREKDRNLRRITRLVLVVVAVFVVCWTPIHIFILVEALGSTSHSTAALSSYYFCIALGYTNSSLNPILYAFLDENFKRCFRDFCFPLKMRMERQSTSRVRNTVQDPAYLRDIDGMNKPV
Sequence of DOR (P41143 whole entry): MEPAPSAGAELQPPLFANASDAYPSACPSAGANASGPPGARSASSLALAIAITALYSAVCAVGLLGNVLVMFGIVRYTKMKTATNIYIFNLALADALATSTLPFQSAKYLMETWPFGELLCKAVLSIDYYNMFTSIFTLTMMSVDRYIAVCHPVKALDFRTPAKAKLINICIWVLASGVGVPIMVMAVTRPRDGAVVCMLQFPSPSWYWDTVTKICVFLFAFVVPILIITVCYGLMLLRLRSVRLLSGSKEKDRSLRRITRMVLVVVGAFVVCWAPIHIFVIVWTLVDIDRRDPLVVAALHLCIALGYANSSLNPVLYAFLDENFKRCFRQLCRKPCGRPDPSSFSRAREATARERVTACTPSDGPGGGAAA
Sequence of MOR (P35372 whole entry): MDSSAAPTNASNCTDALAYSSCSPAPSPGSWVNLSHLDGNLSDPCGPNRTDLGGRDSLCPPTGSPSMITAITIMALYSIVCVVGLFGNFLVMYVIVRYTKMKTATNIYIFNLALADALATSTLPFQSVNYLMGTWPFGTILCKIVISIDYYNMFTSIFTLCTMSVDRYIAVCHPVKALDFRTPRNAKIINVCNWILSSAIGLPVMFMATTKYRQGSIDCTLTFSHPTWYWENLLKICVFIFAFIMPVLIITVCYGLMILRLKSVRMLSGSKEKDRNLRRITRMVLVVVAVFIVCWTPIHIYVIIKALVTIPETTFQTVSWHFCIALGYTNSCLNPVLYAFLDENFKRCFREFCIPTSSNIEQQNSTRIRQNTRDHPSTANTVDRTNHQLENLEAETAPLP

## COC(=O)[C@@H]1C[C@H](OC(C)=O)C(=O)[C@H]2[C@@]1(C)CC[C@H]1C(=O)O[C@H](c3ccoc3)C[C@]21C [SA, Salvinorin A]
DOR
  affinity for the DOR: no affinity
Mice [1]; 7.5 μg intracerebroventricularly
  analgesic effects: active
Mice [1]; 5 mg/kg i.p.
  analgesic effects: no analgesic effects
Mice [1]; 0.5-4 mg/kg intraperitoneally
  antinociceptive effects: dose-dependent antinociceptive effects
KOR
  affinity and potency values at the KOR: nanomolar range
  type of activity at the KOR: full agonist
Male Sprague Dawley rats [2]; SA alone 6.2 mg/kg i.v.
  time at which locomotor and exploratory activity were comparable to pre-injection values: 30 min
Male Sprague Dawley rats [2]; SA alone 6.2 mg/kg i.v., Example 2 Rat number 2
  sedation: mild sedation
Male Sprague Dawley rats [2]; SA alone 6.4 mg/kg i.p.
  time at which locomotor and exploratory activity were comparable to baseline: 30 min
Male Sprague Dawley rats [2]; SA alone 6.4 mg/kg i.p., Example 1 Rat number 2
  sedation: light sedation
Male Sprague Dawley rats [2]; SA alone 12.0 mg/kg i.v.
  time at which locomotor and exploratory activity were comparable to pre-injection values: 30 min
Male Sprague Dawley rats [2]; SA alone 12.0 mg/kg i.v., Example 2 Rat number 3
  sedation: mild sedation
Male Sprague Dawley rats [2]; SA alone 12.9 mg/kg i.p.
  time at which locomotor and exploratory activity were comparable to baseline: 40 min
Male Sprague Dawley rats [2]; SA alone 12.9 mg/kg i.p., Example 1 Rat number 3
  sedation: slight sedation of longer duration
Rats [3]; 0.25-2 mg/kg i.p., rats
  effect on spontaneous locomotor activity: did not affect spontaneous locomotor activity
Rats [3]; 0.4 and 0.64 mg/kg subcutaneously, rats
  effect on locomotor activity: had no effects
Rats [3]; repeated daily injections of 2 mg/kg i.p.
  effect on locomotor activity: increased locomotor activity
Rats [3]; single 2 mg/kg i.p.
  effect on locomotor activity: no effect
Rats [4]
  immobility in the forced swimming test: increased immobility
Mice [5]
  sedation and coordination: mild sedation and a loss of coordination
Male Sprague Dawley rats [6]; SA alone 6.2 mg/kg i.v.
  loss of consciousness or general anesthesia: no loss of consciousness or general anesthesia
Male Sprague Dawley rats [6]; SA alone 6.2 mg/kg i.v., 10 minutes after injection
  righting time (spontaneous righting reflex): 8 s
Male Sprague Dawley rats [6]; SA alone 6.4 mg/kg i.p.
  loss of consciousness or general anesthesia: no loss of consciousness or general anesthesia
Male Sprague Dawley rats [6]; SA alone 6.4 mg/kg i.p., 1-40 min after injection
  righting time (spontaneous righting reflex): 1 to 2 s
Male Sprague Dawley rats [6]; SA alone 12.0 mg/kg i.v.
  loss of consciousness or general anesthesia: no loss of consciousness or general anesthesia
Male Sprague Dawley rats [6]; SA alone 12.0 mg/kg i.v., 5 minutes after injection
  righting time (spontaneous righting reflex): 12 s
Male Sprague Dawley rats [6]; SA alone 12.9 mg/kg i.p.
  loss of consciousness or general anesthesia: no loss of consciousness or general anesthesia
Male Sprague Dawley rats [6]; SA alone 12.9 mg/kg i.p., 1-40 min after injection
  righting time (spontaneous righting reflex): 1 to 2 s
monkeys
  generalization between SA and ketamine: did not find that any generalization between the two drugs is applicable
Healthy humans; acute administration to humans
  acute effects in humans: intense visual and auditory hallucinations without loss of consciousness
Healthy humans; humans
  dose at which the effects are already noticeable: 0.25 mg
  psychometric measurements of sedation (PCAG subscale of the Addiction Research Center Inventory): no significant dose-dependent increases
MOR
  affinity for the MOR: no affinity
Rats [7]
  antinociceptive effects: no effects
Rhesus monkeys; 0.032 mg/kg i.v.
  sedation: sedative effects
Rhesus monkeys; 0.032 mg/kg s.c.
  sedation: did not lead to overt sedation
Rhesus monkeys; i.v., maximum dose of 0.1 mg/kg
  sedation: sedative effects
Rats [8]
  changes in response rates: No significant changes

## CN1C(=O)CN=C(c2ccccc2)c2cc(Cl)ccc21 [diazepam, Diazepam, reference compound]
Male Sprague Dawley rats [2]; rat, in vivo
  sedation: clear sedation
  time of full recovery of spontaneous locomotor and exploratory activity: 1 h
  time of partial recovery of spontaneous locomotor and exploratory activity: 30 min
  time to decrease in spontaneous locomotor and exploratory activity: 1 min
  time to sedation: immediately after the end of the injection
Male Sprague Dawley rats [6]; rat, in vivo
  loss of consciousness or general anesthesia: did not induce loss of consciousness or general anesthesia
  righting time (spontaneous righting reflex): 2 to 3 s

## Cc1cccc(C(C)c2cnc[nH]2)c1C (centres unmarked) [medetomidine, Medetomidine, reference compound]
Male Sprague Dawley rats [2]; rat, in vivo
  sedation: sedative effect
  sedation lasted until: 30 min
  time to sedation after the injection: 30 s
Male Sprague Dawley rats [6]; rat, in vivo
  loss of consciousness or general anesthesia: did not induce loss of consciousness or general anesthesia
  righting time (spontaneous righting reflex): 2 to 3 s
